For this assay, the target named is T1, LXRβ (Homo sapiens, UniProt P55055).
T1 construct: Co-transfection expression plasmids, comprising full-length LXRα (pCMX-h LXRα[…] or LXRβ (pCMX-hLXRβ)); expressed in transfected cells; host or cells: CV-1 African Green Monkey Kidney Cells
T1 sequence (P55055 1-460): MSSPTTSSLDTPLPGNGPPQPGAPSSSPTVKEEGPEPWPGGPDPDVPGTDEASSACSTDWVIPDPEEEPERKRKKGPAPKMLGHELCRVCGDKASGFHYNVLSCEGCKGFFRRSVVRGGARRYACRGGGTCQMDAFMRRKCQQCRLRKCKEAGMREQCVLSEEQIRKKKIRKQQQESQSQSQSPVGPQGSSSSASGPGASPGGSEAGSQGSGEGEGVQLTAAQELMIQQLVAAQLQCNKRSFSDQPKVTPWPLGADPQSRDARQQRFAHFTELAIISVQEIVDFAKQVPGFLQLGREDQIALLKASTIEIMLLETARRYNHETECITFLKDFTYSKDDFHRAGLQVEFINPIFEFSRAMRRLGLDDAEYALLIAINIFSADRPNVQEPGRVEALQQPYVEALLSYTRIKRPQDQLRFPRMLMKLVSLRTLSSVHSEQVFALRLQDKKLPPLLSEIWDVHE
T1 sequence (P19793 1-462 partner): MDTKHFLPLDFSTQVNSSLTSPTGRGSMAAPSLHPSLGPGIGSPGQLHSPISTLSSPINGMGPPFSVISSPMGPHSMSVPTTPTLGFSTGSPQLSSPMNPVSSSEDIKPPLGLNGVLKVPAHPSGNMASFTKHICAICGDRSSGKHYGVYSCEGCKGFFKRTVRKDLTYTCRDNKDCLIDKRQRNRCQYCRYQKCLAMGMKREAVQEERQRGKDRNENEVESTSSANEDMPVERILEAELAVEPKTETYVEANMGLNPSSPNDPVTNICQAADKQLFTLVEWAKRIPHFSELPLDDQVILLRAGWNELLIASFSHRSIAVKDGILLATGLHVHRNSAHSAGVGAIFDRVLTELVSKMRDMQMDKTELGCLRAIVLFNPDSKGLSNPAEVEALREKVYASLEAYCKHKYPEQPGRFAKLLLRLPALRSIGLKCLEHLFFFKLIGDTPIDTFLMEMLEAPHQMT
Kind of assay: Co-transfection assay (LXRE luciferase reporter), LXRβ. The note with it: for EC50: CV-1 cells transfected with pCMX-hLXRβ and LXREx1-Tk-Luciferase, 20 hours incubation; for Emax: LXRβ co-transfection, relative to high control 1-(2,4-difluorobenzyl)-2-oxo-6-(4-phenoxyphenyl)-4-(trifluoromethyl)-1,2-dihydropyridine-3-carbonitrile, read-out: % Efficacy. The format is cell-based. Summed up: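 Luciferase signal from an LXREx1-Tk reporter was measured after transfected CV-1 cells (full-length hLXRβ, endogenous RXR) were treated with compounds for 20 h at 37 °C, ≤0.5% DMSO. EC50 came from four-parameter fits of 11-point ½-log curves; % efficacy versus a reference agonist maximum.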
For orientation: Reporter assays use an easily measured gene product as a stand-in for the process of interest.

This is an account of results in patent US9834542B2, “LXR modulators” (BRISTOL-MYERS SQUIBB COMPANY, priority 2013, dated 2017).

Usually EC50 stands for the concentration giving half of the maximal effect. In the case of `Cc1nc(C(F)(F)F)cn1-c1ccc(-c2cc(F)c(CO)c(S(C)(=O)=O)c2)cc1-c1nc(CCO)oc1-c1ccc(OC(F)(F)F)cc1` [Example 525, 2-(4-(3′-fluoro-4′-(hydroxymethyl)-4-(2-methyl-4-(trifluoromethyl)-1H-imidazol-1-yl)-5′-(methylsulfonyl)-[1,1′-biphenyl]-3-yl)-5-(4-(trifluoromethoxy)phenyl)oxazol-2-yl)ethanol], a half-maximal effect (EC50) was put at 650 nM and the Emax was determined as 67%.
For `Cc1nc(C(F)(F)F)cn1-c1ccc(-c2ccc(CO)c(S(C)(=O)=O)c2)cc1-c1nc(CCO)oc1-c1ccc(OC(F)(F)F)cc1` [Example 526] the same measures were 1770 nM and 74%.
For `COCCc1nc(-c2cc(-c3cc(F)c(CO)c(S(C)(=O)=O)c3)ccc2-n2cc(C(F)(F)F)nc2C)c(-c2ccc(OC(F)(F)F)cc2)o1` [Example 527, (3-fluoro-3′-(2-(2-methoxyethyl)-5-(4-(trifluoromethoxy)phenyl)oxazol-4-yl)-4′-(2-methyl-4-(trifluoromethyl)-1H-imidazol-1-yl)-5-(meththsulfonyl)-[1,1′-biphenyl]-4-yl)methanol] the same measures were 107 nM and 54%.
For `Cc1nc(C(F)(F)F)cn1-c1ccc(-c2cc(F)c(CO)c(S(C)(=O)=O)c2)cc1-c1nc(C(C)(C)CO)oc1-c1ccc(OC(F)(F)F)cc1` [Example 528, 2-(4-(3′-fluoro-4′-(hydroxymethyl)-4-(2-methyl-4-(trifluoromethyl)-1H-imidazol-1-yl)-5′-(meththsulfonyl)-[1,1′-biphenyl]-3-yl)-5-(4-(trifluoromethoxy)phenyl)oxazol-2-yl)-2-methylpropan-1-ol] the same measures were 133 nM and 20%.
With `Cc1nc(-c2cc(-c3cc(F)c(CCO)c(S(C)(=O)=O)c3)ccc2-n2cc(C(F)(F)F)nc2C)c(-c2ccc(OC(F)(F)F)cc2)o1` [Example 529, 2-(3-fluoro-4′-(2-methyl-4-(trifluoromethyl)-1H-imidazol-1-yl)-3′-(2-methyl-5-(4-(trifluoromethoxy)phenyl)oxazol-4-yl)-5-(methylsulfonyl)-[1,1′-biphenyl]-4-yl)ethanol], a half-maximal effect (EC50) was put at 54 nM and the Emax stood at 101%.
For `Cc1nc(C(F)(F)F)cn1-c1ccc(-c2cc(F)c(CO)c(S(C)(=O)=O)c2)cc1-c1nc(CCO)oc1-c1ccc2c(c1)OC(F)(F)O2` [Example 530, 2-(5-(2,2-difluorobenzo[d][1,3]dioxol-5-yl)-4-(3′-fluoro-4′-(hydroxymethyl)-4-(2-methyl-4-(trifluoromethyl)-1H-imidazol-1-yl)-5′-(methylsulfonyl)-[1,1′-biphenyl]-3-yl)oxazol-2-yl)ethanol], in that order: 739 nM and 71%.
For `Cc1nc(C(F)(F)F)cn1-c1ccc(-c2cccc(S(C)(=O)=O)c2)cc1-c1nc(CCO)oc1-c1ccc2c(c1)OC(F)(F)O2` [Example 531], in that order: 422 nM and 74%.
For `C=Cc1nc(-c2cc(-c3cccc(S(C)(=O)=O)c3)ccc2-n2cc(C(F)(F)F)nc2C)c(-c2ccc3c(c2)OC(F)(F)O3)o1` [Example 532] the same measures were 16 nM and 89%.
As to `Cc1nc(-c2cc(-c3cccc([S+](C)[O-])c3)ccc2-n2cc(C(F)(F)F)nc2C)c(-c2ccc(OC(F)(F)F)cc2)o1` (centres unmarked) [Example 533, 2-methyl-4-(4-(2-methyl-4-(trifluoromethyl)-1H-imidazol-1-yl)-3′-(methylsulfinyl)-[1,1′-biphenyl]-3-yl)-5-(4-(trifluoromethoxy)phenyl)oxazole], it took 233 nM to reach a half-maximal effect (EC50) and the Emax was found to be 73%.
For `Cc1nc(C(F)(F)F)cn1-c1ccc(-c2cc(F)c(CO)c(S(C)(=O)=O)c2)cc1-c1nc(CC(C)O)oc1-c1ccc(OC(F)(F)F)cc1` (centres unmarked) [Example 534, 1-(4-(3′-fluoro-4′-(hydroxymethyl)-4-(2-methyl-4-(trifluoromethyl)-1H-imidazol-1-yl)-5′-(methylsulfonyl)-[1,1′-biphenyl]-3-yl)-5-(4-(trifluoromethoxy)phenyl)oxazol-2-yl)propan-2-ol], in that order: 197 nM and 55%.
For `Cc1nc(C(F)(F)F)cn1-c1ccc(-c2ccc(CO)c(S(C)(=O)=O)c2)cc1-c1nc(CC(C)O)oc1-c1ccc(OC(F)(F)F)cc1` (centres unmarked) [Example 535, 1-(4-(4′-(hydroxymethyl)-4-(2-methyl-4-(trifluoromethyl)-1H-imidazol-1-yl)-3'-(methylsulfonyl)-[1,1′-biphenyl]-3-yl)-5-(4-(trifluoromethoxy)phenyl)oxazol-2-yl)propan-2-ol], in that order: 617 nM and 62%.
For `Cc1nc(C(F)(F)F)cn1-c1ccc(-c2cccc(S(C)(=O)=O)c2)cc1-c1nc(CC(C)O)oc1-c1ccc(OC(F)(F)F)cc1` (centres unmarked) [Example 536, 1-(4-(4-(2-methyl-4-(trifluoromethyl)-1H-imidazol-1-yl)-3′-(methylsulfonyl)-[1,1′-biphenyl]-3-yl)-5-(4-(trifluoromethoxy)phenyl)oxazol-2-yl)propan-2-ol], in that order: 280 nM and 82%.
Regarding `Cc1nc(C(F)(F)F)cn1-c1ccc(-c2cccc(S(C)(=O)=O)c2)cc1-c1nc(CC(=O)O)oc1-c1ccc(OC(F)(F)F)cc1` [Example 537, 2-(4-(4-(2-methyl-4-(trifluoromethyl)-1H-imidazol-1-yl)-3′-(methylsulfonyl)-[1,1′-biphenyl]-3-yl)-5-(4-(trifluoromethoxy)phenyl)oxazol-2-yl)acetic acid], the response was half-maximal at 661 nM (EC50) and the Emax was 100%.
For `Cc1nc(C(F)(F)F)cn1-c1ccc(-c2cccc(S(C)(=O)=O)c2)cc1-c1nc(CN(C)C)oc1-c1ccc(OC(F)(F)F)cc1` [Example 538, N,N-dimethyl-1-(4-(4-(2-methyl-4-(trifluoromethyl)-1H-imidazol-1-yl)-3′-(methylsulfonyl)-[1,1′-biphenyl]-3-yl)-5-(4-(trifluoromethoxy)phenyl)oxazol-2-yl)methanamine] the same measures were 205 nM and 79%.
For `COCS(=O)(=O)c1cccc(-c2ccc(-n3cc(C(F)(F)F)nc3C)c(-c3nc(C)oc3-c3ccc(OC(F)(F)F)cc3)c2)c1` [Example 539, 4-(3′-((methoxymethyl)sulfonyl)-4-(2-methyl-4-(trifluoromethyl)-1H-imidazol-1-yl)-[1,1′-biphenyl]-3-yl)-2-methyl-5-(4-(trifluoromethoxy)phenyl)oxazole], in that order: 206 nM and 81%.
For `CNS(=O)(=O)c1cccc(-c2ccc(-n3cc(C(F)(F)F)nc3C)c(-c3nc(C)oc3-c3ccc(OC(F)F)cc3)c2)c1` [Example 540, 3′-(5-(4-(difluoromethoxy)phenyl)-2-methyloxazol-4-yl)-N-methyl-4′-(2-methyl-4-(trifluoromethyl)-1H-imidazol-1-yl)-[1,1′-biphenyl]-3-sulfonamide] the same measures were 28 nM and 106%.
Regarding `Cc1nc(-c2cc(-c3cccc(S(=O)(=O)N(C)C)c3)ccc2-n2cc(C(F)(F)F)nc2C)c(-c2ccc(OC(F)F)cc2)o1` [Example 541, 3′-(5-(4-(difluoromethoxy)phenyl)-2-methyloxazol-4-yl)-dimethyl-4′-(2-methyl-4-(trifluoromethyl)-1H-imidazol-1-yl)-[1,1′-biphenyl]-3-sulfonamide], a half-maximal response (EC50) required 25 nM and the Emax was 90%.
For `Cc1nc(-c2cc(-c3cccc(C(C)(C)C(N)=O)c3)ccc2-n2cc(C(F)(F)F)nc2C)c(-c2ccc(OC(F)F)cc2)o1` [Example 542, 2-(3′-(5-(4-(difluoromethoxy)phenyl)-2-methyloxazol-4-yl)-4′-(2-methyl-4-(trifluoromethyl)-1H-imidazol-1-yl)-[1,1′-biphenyl]-3-yl)-2-methylpropanamide], in that order: 82 nM and 89%.
For `Cc1nc(-c2cc(-c3cc(F)c(CO)c(S(C)(=O)=O)c3)ccc2-n2cc(C(F)(F)F)nc2C)c(-c2ccc(SC(F)(F)F)cc2)o1` [Example 543], in that order: 67 nM and 48%.
